Data on four compounds can be found in article PMC6027421 (Pharmaceuticals, 2018).

Test [1] deals with T1, CYP17A1_WT (Homo sapiens, UniProt P05093).
T1 sequence (P05093 1-508): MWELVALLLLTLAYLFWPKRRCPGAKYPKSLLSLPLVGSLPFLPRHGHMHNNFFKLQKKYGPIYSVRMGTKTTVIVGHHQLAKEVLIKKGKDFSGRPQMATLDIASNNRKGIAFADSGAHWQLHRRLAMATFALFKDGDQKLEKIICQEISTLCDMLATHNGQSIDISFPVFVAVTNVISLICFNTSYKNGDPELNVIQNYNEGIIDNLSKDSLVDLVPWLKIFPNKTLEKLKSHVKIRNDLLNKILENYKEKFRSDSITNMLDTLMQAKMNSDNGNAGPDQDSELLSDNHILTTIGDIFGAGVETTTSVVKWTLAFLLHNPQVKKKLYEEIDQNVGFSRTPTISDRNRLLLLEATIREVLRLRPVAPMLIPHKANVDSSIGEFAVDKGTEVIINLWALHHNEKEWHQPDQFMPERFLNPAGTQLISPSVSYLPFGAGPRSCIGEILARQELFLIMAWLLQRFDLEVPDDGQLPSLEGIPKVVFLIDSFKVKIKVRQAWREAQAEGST
Nature of the test: Spectral substrate/inhibitor-binding assay, WT CYP17A1. The conditions noted are these: 50 nM protein, 22 °C. The protocol: Binding of steroid substrates to CYP17A1 was measured by recording the substrate-binding spectra in the range of 340–500 nm on a Perkin Elmer Lambda 25 spectrophotometer. A change in heme absorbance is observed when water molecules at the active site are replaced by steroid substrates. […] To accurately measure the tight binding substrates and inhibitors, a cuvette with 100 mm path length was employed and protein concentration was kept at 50 nM. […] All substrates and abiraterone were dissolved in ethanol and an equal amount of ethanol was added to the reference cuvette and the final concentration of ethanol added to the cuvettes was kept below 2%. After each addition of the compounds, cuvettes were incubated for 5 min at 22 °C before recording the spectra. […] Data were fitted with GraphPad Prism based on the tight binding pattern of substrates to a single binding site.

In test [2] the target is T1, CYP17A1_WT. The experiment in a line: Inhibition of PROG 17α-hydroxylation, WT CYP17A1. Type of test: biochemical.
Experimental: (§1) To assess 17α-hydroxylase activity, 10 pmol of CYP17A1 along with 20 pmol purified human POR [17, 31, 32, 34, 62] […] Enzyme kinetic calculations were performed using non-linear regression curve fitting with Prism (GraphPad Software Inc., San Diego, CA, USA). Data represent the mean of three independent experiments.
For test [3], the system named is T2, CYP17A1 WT.
T2 construct: (His)4; made in house; host or cells: E. coli JM109
The experiment in a line: 17α-hydroxylase enzyme kinetics (PROG to 17OH-PROG), WT CYP17A1. Type of test: biochemical, human.
Experimental: as §1

The test system of test [4] is CYP17A1 WT. The conditions noted are these: 17OH-PREG as substrate, with cytochrome b5.

Where two headings read alike, the source gives them in different places.

As for `C[C@]12CC[C@H](O)CC1=CC[C@@H]1[C@@H]2CC[C@]2(C)C(c3cccnc3)=CC[C@@H]12` [Abiraterone, abiraterone], on CYP17A1_WT [1] (read-out: Kd), the Kd (usually the concentration at which binding is half-saturated) was 0.085 ± 0.023 µM. For the same compound, the concentration for half-maximal inhibition (IC50) (commonly the midpoint of a concentration-inhibition curve) against CYP17A1_WT [2] was determined as 0.04 ± 0.01 µM.
On the same counts, the results for `CC(=O)[C@H]1CC[C@H]2[C@@H]3CC=C4C[C@@H](O)CC[C@]4(C)[C@H]3CC[C@]12C` [PREG, pregnenolone] are 0.062 ± 0.017 µM and 0.9 ± 0.15 µM.
On to `CC(=O)[C@H]1CC[C@H]2[C@@H]3CCC4=CC(=O)CC[C@]4(C)[C@H]3CC[C@]12C` [PROG, Progesterone], for which the dissociation constant (Kd) at CYP17A1_WT [1] (read-out: Kd) turned out to be 0.163 ± 0.029 µM. The “Vmax, 17α-Hydroxylase PROG to 17OH-PROG” value in the test with CYP17A1 WT [3] (PROG as substrate) is 0.71 min⁻¹. In addition, the Michaelis constant (Km) (commonly the substrate concentration at which the rate is half of its maximum) in the test with CYP17A1 WT [3] (read-out: Km, 17α-Hydroxylase PROG to 17OH-PROG, PROG as substrate, CYP17A1:POR 1:2, 37 °C) is 6.1 ± 0.7 µM. Moreover, the “Cat Eff, 17α-Hydroxylase PROG to 17OH-PROG” value in the test on CYP17A1 WT [3] (relative to WT) was 100%.
Turning to `CC(=O)[C@@]1(O)CC[C@H]2[C@@H]3CC=C4C[C@@H](O)CC[C@]4(C)[C@H]3CC[C@@]21C` [17OH-PREG, 17α-hydroxypregnenolone], the equilibrium dissociation constant (Kd) at CYP17A1_WT [1] (Kd) was found to be 0.142 ± 0.038 µM. Further, the “Vmax, 17,20 Lyase 17OH-PREG to DHEA” value with CYP17A1 WT [4] stood at 0.025 ± 0.004 min⁻¹. For the same compound, the Km in the test on CYP17A1 WT [4] (read-out: Km, 17,20 Lyase 17OH-PREG to DHEA) turned out to be 0.92 ± 0.07 µM. The same compound displayed an IC50 against CYP17A1_WT [2] of 1.7 ± 0.2 µM.
